{"source": "ChEMBL document CHEMBL5696442", "about": "“Discovery of type II inhibitors of TGFβ-activated kinase 1 (TAK1) and mitogen-activated protein kinase kinase kinase kinase 2 (MAP4K2)” (J Med Chem, 2015)", "key": {"[1]": {"biological_target": "Mitogen-activated protein kinase kinase kinase 20 (Homo sapiens, UniProt Q9NYL2)", "sequence (Q9NYL2 whole entry)": "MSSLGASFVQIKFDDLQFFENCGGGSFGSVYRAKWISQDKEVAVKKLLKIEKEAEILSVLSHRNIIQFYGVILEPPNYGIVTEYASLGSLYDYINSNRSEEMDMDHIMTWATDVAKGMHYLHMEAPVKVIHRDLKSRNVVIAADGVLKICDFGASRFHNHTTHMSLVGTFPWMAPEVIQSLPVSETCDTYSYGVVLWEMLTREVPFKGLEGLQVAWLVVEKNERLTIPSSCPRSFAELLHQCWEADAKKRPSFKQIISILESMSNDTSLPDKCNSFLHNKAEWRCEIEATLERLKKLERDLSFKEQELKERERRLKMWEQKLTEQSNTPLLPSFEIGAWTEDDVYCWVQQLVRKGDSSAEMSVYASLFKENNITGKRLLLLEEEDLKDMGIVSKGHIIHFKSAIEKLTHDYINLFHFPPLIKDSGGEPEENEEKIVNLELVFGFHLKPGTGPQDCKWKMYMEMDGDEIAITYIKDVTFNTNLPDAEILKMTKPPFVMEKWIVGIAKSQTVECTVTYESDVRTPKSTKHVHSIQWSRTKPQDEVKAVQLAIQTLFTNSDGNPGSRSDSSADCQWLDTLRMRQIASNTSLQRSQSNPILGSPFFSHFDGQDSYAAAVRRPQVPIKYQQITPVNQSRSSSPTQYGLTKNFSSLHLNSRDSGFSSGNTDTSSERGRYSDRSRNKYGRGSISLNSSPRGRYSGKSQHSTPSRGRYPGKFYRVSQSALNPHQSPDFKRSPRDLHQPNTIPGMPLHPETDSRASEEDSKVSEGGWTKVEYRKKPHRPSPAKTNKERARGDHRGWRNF", "test": "Inhibition of ZAK (unknown origin) Lys1 labeling site by KiNativ Profiling analysis"}, "[2]": {"biological_target": "Serine/threonine-protein kinase 25 (Homo sapiens) (UniProt O00506)", "sequence (O00506 whole entry, looked up)": "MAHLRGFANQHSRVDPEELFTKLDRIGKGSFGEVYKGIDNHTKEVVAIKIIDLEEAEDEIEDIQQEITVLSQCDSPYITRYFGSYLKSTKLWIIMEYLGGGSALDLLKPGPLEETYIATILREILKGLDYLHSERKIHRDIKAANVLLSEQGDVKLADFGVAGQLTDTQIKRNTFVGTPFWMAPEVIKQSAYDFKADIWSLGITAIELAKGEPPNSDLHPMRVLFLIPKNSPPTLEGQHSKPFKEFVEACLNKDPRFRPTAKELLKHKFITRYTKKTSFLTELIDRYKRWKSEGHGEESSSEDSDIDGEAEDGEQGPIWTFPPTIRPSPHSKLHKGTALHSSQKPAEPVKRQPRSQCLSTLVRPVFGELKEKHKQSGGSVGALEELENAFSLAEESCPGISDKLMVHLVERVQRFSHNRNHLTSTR", "test": "Inhibition of YSK1 Lys2 labeling site in human A-375 cells at 5 uM by KiNativ Profiling analysis relative to control", "assay_type": "cell-based"}, "[3]": {"biological_target": "T1, Serine/threonine-protein kinase Nek9 (Homo sapiens) (UniProt Q8TD19)", "T1 sequence (whole entry)": "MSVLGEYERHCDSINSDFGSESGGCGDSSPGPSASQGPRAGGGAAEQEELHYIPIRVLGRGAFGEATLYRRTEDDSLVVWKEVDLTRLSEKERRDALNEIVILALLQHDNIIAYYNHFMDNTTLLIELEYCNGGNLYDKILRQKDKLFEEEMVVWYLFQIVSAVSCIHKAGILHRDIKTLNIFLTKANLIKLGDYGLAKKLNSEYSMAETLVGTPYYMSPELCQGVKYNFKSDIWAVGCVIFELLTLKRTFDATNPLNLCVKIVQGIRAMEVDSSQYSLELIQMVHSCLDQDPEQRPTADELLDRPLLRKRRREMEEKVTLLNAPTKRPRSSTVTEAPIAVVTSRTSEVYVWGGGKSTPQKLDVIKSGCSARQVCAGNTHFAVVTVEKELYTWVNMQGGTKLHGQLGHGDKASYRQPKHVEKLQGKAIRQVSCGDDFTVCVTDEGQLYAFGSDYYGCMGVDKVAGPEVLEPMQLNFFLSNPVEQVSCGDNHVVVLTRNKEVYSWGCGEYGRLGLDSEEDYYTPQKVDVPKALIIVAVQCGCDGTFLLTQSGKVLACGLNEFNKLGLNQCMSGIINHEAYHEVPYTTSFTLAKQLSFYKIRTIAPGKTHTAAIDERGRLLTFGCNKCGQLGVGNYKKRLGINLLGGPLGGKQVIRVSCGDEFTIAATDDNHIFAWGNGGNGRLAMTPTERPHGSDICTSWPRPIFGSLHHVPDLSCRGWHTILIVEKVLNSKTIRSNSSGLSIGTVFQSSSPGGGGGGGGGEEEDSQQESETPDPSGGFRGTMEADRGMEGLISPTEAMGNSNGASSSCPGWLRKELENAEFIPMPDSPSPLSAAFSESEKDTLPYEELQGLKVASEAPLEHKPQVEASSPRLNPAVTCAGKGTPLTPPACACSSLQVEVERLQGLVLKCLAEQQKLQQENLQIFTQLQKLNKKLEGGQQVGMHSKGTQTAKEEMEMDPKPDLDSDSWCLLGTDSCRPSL", "test": "Inhibition of NEK9 Lys1 labeling site harbouring RTEDDSLVVWKEVDLTR in human A-375 cells at 5 uM by KiNativ Profiling analysis relative to control", "assay_type": "cell-based"}, "[4]": {"biological_target": "Protein kinase C beta type (Homo sapiens) (UniProt P05771)", "sequence (P05771 2-671 limits assumed)": "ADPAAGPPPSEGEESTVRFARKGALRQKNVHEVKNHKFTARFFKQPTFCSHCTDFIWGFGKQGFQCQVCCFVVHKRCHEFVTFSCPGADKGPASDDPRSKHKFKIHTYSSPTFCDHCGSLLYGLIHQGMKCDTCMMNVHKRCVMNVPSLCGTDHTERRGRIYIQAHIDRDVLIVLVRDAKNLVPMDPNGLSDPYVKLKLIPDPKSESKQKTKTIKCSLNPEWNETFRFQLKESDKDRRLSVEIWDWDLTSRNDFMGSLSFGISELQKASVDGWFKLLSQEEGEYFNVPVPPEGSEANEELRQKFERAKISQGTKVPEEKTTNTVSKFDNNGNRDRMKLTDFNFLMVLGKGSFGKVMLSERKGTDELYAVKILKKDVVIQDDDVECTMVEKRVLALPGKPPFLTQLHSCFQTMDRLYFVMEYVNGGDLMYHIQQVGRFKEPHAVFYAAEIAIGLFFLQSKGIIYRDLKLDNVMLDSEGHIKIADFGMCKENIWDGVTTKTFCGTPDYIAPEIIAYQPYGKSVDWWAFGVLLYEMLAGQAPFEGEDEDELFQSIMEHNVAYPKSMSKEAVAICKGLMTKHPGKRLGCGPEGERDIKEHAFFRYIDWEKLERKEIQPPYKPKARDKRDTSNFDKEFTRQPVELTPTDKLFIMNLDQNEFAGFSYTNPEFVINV", "test": "Inhibition of PKCb Lys2 labeling site in human A-375 cells at 5 uM by KiNativ Profiling analysis relative to control", "assay_type": "cell-based"}, "[5]": {"biological_target": "Tyrosine-protein kinase JAK1 (Homo sapiens) (UniProt P23458)", "test": "Inhibition of JAK1 in human A-375 cells at 0.5 uM by KiNativ Profiling analysis relative to control", "assay_type": "cell-based"}, "[6]": {"biological_target": "Cyclin-dependent kinase 16 (Homo sapiens) (UniProt Q00536)", "sequence (Q00536 whole entry)": "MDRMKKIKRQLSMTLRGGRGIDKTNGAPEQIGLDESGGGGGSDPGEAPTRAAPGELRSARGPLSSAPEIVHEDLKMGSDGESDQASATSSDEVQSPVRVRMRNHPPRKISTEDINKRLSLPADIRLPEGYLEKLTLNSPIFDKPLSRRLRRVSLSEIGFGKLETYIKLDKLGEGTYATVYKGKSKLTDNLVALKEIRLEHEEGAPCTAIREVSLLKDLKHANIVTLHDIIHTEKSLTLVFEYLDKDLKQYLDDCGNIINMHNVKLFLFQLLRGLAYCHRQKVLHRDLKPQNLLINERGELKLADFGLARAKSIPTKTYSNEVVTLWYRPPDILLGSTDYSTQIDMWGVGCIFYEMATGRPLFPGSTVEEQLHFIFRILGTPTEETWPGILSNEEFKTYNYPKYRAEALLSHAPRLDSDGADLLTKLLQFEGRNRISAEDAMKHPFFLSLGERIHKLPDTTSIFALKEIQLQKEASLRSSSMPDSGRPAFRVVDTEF", "test": "Inhibition of PCTAIRE1 Lys1 labeling site in human A-375 cells at 0.5 uM by KiNativ Profiling analysis relative to control", "assay_type": "cell-based"}, "[7]": {"biological_target": "Cyclin-dependent kinase 16 (Homo sapiens) (UniProt Q00536)", "test": "Inhibition of PFTAIRE1 Lys1 labeling site in human A-375 cells at 0.5 uM by KiNativ Profiling analysis relative to control", "assay_type": "cell-based"}, "[8]": {"biological_target": "Protein kinase C alpha type (Homo sapiens) (UniProt P17252)", "test": "Inhibition of PKCa Lys2 labeling site in human A-375 cells at 0.5 uM by KiNativ Profiling analysis relative to control", "assay_type": "cell-based"}, "[9]": {"biological_target": "Serine/threonine-protein kinase SIK3 (Homo sapiens) (UniProt Q9Y2K2)", "sequence (Q9Y2K2 whole entry, looked up)": "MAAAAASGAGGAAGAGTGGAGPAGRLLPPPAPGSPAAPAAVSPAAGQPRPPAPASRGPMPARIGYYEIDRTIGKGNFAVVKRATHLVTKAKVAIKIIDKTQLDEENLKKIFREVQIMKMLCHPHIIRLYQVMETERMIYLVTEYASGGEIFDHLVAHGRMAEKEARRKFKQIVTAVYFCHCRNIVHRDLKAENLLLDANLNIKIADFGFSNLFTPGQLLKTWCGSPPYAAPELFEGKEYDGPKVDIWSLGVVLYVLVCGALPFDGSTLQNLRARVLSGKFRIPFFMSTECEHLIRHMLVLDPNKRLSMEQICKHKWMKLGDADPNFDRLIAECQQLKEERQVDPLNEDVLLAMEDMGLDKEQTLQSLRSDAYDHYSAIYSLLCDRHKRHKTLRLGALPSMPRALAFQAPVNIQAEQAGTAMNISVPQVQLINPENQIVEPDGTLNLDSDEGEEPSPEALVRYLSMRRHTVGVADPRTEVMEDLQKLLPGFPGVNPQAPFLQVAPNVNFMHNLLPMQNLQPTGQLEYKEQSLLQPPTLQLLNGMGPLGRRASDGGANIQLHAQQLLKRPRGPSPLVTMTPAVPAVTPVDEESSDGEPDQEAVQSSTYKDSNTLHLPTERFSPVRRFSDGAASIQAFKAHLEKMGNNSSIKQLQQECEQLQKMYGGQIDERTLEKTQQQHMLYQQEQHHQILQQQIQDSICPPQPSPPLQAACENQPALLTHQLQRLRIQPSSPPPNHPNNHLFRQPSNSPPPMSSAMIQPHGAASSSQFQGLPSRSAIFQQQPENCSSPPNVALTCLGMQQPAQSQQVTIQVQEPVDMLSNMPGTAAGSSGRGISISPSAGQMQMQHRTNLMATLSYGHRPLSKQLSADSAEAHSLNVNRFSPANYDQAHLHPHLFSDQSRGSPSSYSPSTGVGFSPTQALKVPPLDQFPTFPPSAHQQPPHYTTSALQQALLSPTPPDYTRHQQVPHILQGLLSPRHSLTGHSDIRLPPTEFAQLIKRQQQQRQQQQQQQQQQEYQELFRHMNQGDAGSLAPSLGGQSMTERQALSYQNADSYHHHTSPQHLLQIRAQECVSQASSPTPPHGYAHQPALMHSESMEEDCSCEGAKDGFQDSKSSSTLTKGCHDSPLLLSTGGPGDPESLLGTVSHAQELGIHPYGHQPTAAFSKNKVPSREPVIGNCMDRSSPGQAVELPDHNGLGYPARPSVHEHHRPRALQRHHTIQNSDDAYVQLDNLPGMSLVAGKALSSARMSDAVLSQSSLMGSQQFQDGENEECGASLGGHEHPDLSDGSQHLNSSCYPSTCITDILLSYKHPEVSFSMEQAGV", "test": "Inhibition of QSK Lys2 labeling site in human A-375 cells at 0.5 uM by KiNativ Profiling analysis relative to control", "assay_type": "cell-based"}, "[10]": {"biological_target": "5'-AMP-activated protein kinase catalytic subunit alpha-1 (Homo sapiens) (UniProt Q13131)", "sequence (Q13131 whole entry, looked up)": "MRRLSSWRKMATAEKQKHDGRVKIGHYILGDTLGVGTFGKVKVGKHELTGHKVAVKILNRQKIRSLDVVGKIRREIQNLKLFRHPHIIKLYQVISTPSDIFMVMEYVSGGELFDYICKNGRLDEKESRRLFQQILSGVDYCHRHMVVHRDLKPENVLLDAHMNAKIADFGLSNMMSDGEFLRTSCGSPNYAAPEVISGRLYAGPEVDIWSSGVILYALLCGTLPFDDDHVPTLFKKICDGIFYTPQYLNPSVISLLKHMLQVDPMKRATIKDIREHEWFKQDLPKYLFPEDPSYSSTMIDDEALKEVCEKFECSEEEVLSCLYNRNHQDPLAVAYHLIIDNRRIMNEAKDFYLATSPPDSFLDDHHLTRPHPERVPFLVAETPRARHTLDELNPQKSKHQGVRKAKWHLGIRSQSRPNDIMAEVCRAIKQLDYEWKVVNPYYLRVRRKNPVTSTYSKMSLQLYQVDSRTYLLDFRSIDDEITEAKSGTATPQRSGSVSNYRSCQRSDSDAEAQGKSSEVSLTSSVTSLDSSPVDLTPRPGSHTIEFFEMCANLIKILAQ", "test": "Inhibition of AMPKa1 Lys1 labeling site in human A-375 cells at 0.05 uM by KiNativ Profiling analysis relative to control", "assay_type": "cell-based"}, "[11]": {"biological_target": "Calcium/calmodulin-dependent protein kinase type II subunit gamma (Homo sapiens) (UniProt Q13555)", "sequence (Q13555 whole entry)": "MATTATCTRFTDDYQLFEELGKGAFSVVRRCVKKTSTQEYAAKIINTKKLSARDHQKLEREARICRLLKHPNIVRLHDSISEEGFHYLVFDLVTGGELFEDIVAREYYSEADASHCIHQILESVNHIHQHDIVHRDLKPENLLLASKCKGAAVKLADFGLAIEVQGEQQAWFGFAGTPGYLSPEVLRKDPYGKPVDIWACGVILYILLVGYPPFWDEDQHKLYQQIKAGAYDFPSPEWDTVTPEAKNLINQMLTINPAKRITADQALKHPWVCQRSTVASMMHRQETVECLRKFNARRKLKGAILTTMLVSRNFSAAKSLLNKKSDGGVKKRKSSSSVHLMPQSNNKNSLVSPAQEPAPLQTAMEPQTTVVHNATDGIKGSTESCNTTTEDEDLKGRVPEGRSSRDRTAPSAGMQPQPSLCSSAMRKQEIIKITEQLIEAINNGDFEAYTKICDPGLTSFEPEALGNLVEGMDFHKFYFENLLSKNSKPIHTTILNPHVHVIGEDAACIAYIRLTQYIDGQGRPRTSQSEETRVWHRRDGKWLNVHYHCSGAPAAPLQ", "test": "Inhibition of CaMK2g Lys1 labeling site harbouring KTSTQEYAAKIINTKK in human A-375 cells at 0.05 uM by KiNativ Profiling analysis relative to control", "assay_type": "cell-based"}, "[12]": {"test": "Inhibition of IL-1 induced p38 MAPK phosphorylation level in wild type mouse MEF cells at 500 nM incubated for 1 hr followed by IL-1 stimulation by Western blot analysis relative to control", "assay_type": "functional"}}, "data": [{"smiles": "CCN1CCN(Cc2ccc(NC(=O)c3ccc(C)c(Oc4ccnc5[nH]ccc45)c3)cc2C(F)(F)F)CC1", "values": [{"measurement": "IC50", "setting": "[1]", "value": 698, "unit": "nM"}, {"measurement": "inhibition", "setting": "[2]", "value": 15.4, "unit": "%"}, {"measurement": "inhibition", "setting": "[3]", "value": -3.9, "unit": "%"}, {"measurement": "inhibition", "setting": "[4]", "value": 51, "unit": "%"}, {"measurement": "inhibition", "setting": "[5]", "value": 13, "unit": "%"}, {"measurement": "inhibition", "setting": "[6]", "value": 47.7, "unit": "%"}, {"measurement": "inhibition", "setting": "[7]", "value": 41.3, "unit": "%"}, {"measurement": "inhibition", "setting": "[8]", "value": 65, "unit": "%"}, {"measurement": "inhibition", "setting": "[9]", "value": 39.8, "unit": "%"}, {"measurement": "inhibition", "setting": "[10]", "value": 13.4, "unit": "%"}, {"measurement": "inhibition", "setting": "[11]", "value": 16.6, "unit": "%"}]}, {"smiles": "CNc1cc(Oc2cc(C(=O)Nc3cc(-n4cnc(C)c4)cc(C(F)(F)F)c3)ccc2C)ncn1", "values": [{"measurement": "inhibition at 0.5 µM", "setting": "[12]", "value": 50, "unit": "%"}]}, {"smiles": "CNc1cc(Oc2cc(C(=O)Nc3cc(N4CCN(C)CC4)cc(C(F)(F)F)c3)ccc2C)ncn1", "values": [{"measurement": "inhibition at 0.5 µM", "setting": "[12]", "value": 50, "unit": "%"}]}, {"smiles": "CCN1CCN(Cc2ccc(NC(=O)c3ccc(C)c(/C=C/c4cnc5[nH]ccc5c4OC)c3)cc2C(F)(F)F)CC1", "values": [{"measurement": "IC50", "setting": "[1]", "value": 469, "unit": "nM"}, {"measurement": "inhibition", "setting": "[2]", "value": 20.9, "unit": "%"}, {"measurement": "inhibition", "setting": "[3]", "value": 21, "unit": "%"}, {"measurement": "inhibition", "setting": "[4]", "value": 50.2, "unit": "%"}, {"measurement": "inhibition", "setting": "[5]", "value": 5.7, "unit": "%"}, {"measurement": "inhibition", "setting": "[6]", "value": 30.2, "unit": "%"}, {"measurement": "inhibition", "setting": "[7]", "value": 11.9, "unit": "%"}, {"measurement": "inhibition", "setting": "[8]", "value": 48.2, "unit": "%"}, {"measurement": "inhibition", "setting": "[9]", "value": 40.3, "unit": "%"}, {"measurement": "inhibition", "setting": "[10]", "value": 7.4, "unit": "%"}, {"measurement": "inhibition", "setting": "[11]", "value": 14.5, "unit": "%"}]}]}
